Assays:
Assay type in all cases: cell-based
[1] = test system: primary rat embryonic OPCs; assay: QrtPCR of mRNA (MBP, p38MAPK) in primary rat embryonic OPCs; details: for expression of MBP, mRNA and protein levels: in the presence of polymyxin B (50 μg/ml), 50 and 100 ng/ml, 4 days
Description: (§1) Primary rat embryonic OPCs were isolated and prepared according to the method known to the skilled artisan. Briefly, on embryonic day 17, rat embryos were removed from a pregnant Wistar rat in a laminar flow hood. The cortices were dissected out by using microdissecting scissors, rinsed twice in Hank's buffered salt solution and dissociated after digesting with 0.01% trypsin and DNase at 37° C. for 15 min. The digested cells were washed twice, filtered through a 70 mm nylon cell strainer and plated with DMEM containing 20% fetal bovine serum (FBS) in poly-D-lysine coated T75 cell culture flasks (approximately 10 million cells per flask). The cells grew to confluence for 10 days and then were placed on the shaker at 200 r.p.m. at 37° C. for 1 h to remove microglial cells. Subsequently, the cells were left on the shaker for an additional 18-20 h to collect OPCs. The collected OPCs were plated in untreated Petri dishes for 1 h to remove contaminated microglia and astrocytes which attach to the Petri dish more efficiently than OPCs. The unattached OPCs were transferred onto poly-D,L-ornithine-coated Petri dishes at a cell density of 10^4 per/cm2 with a basal chemically defined medium (“BDM”) containing 10 ng/ml platelet-derived growth factor-alpha (“PDGF-AA”) and 10 ng/ml basic fibroblast growth factor (“bFGF”) for 7-10 days.
(§2) The mouse primary cultures of OPCs were conditionally immortalized by transformation with a temperature-sensitive large T-antigen into a mouse OPC cell line-N20.1 (21). N20.1 cells were provided by Dr. Anthony Campagnoni (University of California at Los Angeles). N20.1 cells were grown and maintained in Dulbecco's modified Eagle's medium (“DMEM”)/F12 with 1% fetal bovine serum (“FBS”) and G418 (100 μg/ml) at 37° C. For N20.1 cells, transient transfections were performed with Nucleofector kit according to the manufacturer's protocol (Amaxa, Germany). The cells (10^6) were mixed with 1 μg plasmid DNA or 100 pmol of siRNA/oligo nucleotides and pulsed according to the manufacturer's instruction. […]

[2] = test system: mouse OPC cell line-N20.1; assay: QrtPCR of mRNA (MBP, p38MAPK) in N20.1 cells; details: for expression of MBP, mRNA and protein levels: in the presence of polymyxin B (50 μg/ml), 50 and 100 ng/ml, 4 days
Description: The mouse primary cultures of OPCs were conditionally immortalized by transformation with a temperature-sensitive large T-antigen into a mouse OPC cell line-N20.1 (21). N20.1 cells were provided by Dr. Anthony Campagnoni (University of California at Los Angeles). N20.1 cells were grown and maintained in Dulbecco's modified Eagle's medium (“DMEM”)/F12 with 1% fetal bovine serum (“FBS”) and G418 (100 μg/ml) at 37° C. For N20.1 cells, transient transfections were performed with Nucleofector kit according to the manufacturer's protocol (Amaxa, Germany). The cells (10^6) were mixed with 1 μg plasmid DNA or 100 pmol of siRNA/oligo nucleotides and pulsed according to the manufacturer's instruction. The transfected cells were immediately plated into Petri dishes with DMEM containing 1% FBS and incubated at 37° C. for days. Primary rat embryonic OPCs were transiently transfected with Lipofectamine (Invitrogen) overnight, according to the manufacturer's protocol (see Chew et al., J. Neuroscience 30(33): 11011-11027 (2010)). Amounts of DNA and siRNA/oligo nucleotides were used as recommended by the manufacturer. The control plasmid (pcDNA3) was used as a mock transfected control for miR-146a expression vector transfection, and control siRNA (Ambion, a random mixture of oligonucleotides) was used as a mock transfected control for both transfections with Tβ4siRNA and anti-miR-146a inhibitor nucleotides. The cells (10^4 cells/cm^2) were treated with 0, 25, 50, 100 ng/ml of Tβ4 (RegeneRx Biopharmaceuticals Inc., Rockville, Md.). The cells were incubated at 37° C. and fed every 2 days with fresh medium (DMEM containing 1% FBS for N20.1 cells and BDM for primary rat embryonic OPCs) with and without Tβ4 for 4 days. […]
After qrtPCR, agarose gel electrophoresis was performed to verify the quality of the qrtPCR products. No secondary products were detected. […] Values obtained from three independent experiments were analyzed relative to gene expression data using the 2^−ΔΔCT method.

[3] = test system: primary rat embryonic OPCs; assay: MBP immunofluorescence cell counting in primary rat embryonic OPCs; details: Tβ4 100 ng/ml where used; DAPI positive cells as total
Description: (§3) Primary rat embryonic OPCs were isolated and prepared according to the method known to the skilled artisan. Briefly, on embryonic day 17, rat embryos were removed from a pregnant Wistar rat in a laminar flow hood. The cortices were dissected out by using microdissecting scissors, rinsed twice in Hank's buffered salt solution and dissociated after digesting with 0.01% trypsin and DNase at 37° C. for 15 min. The digested cells were washed twice, filtered through a 70 mm nylon cell strainer and plated with DMEM containing 20% fetal bovine serum (FBS) in poly-D-lysine coated T75 cell culture flasks (approximately 10 million cells per flask). The cells grew to confluence for 10 days and then were placed on the shaker at 200 r.p.m. at 37° C. for 1 h to remove microglial cells. Subsequently, the cells were left on the shaker for an additional 18-20 h to collect OPCs. The collected OPCs were plated in untreated Petri dishes for 1 h to remove contaminated microglia and astrocytes which attach to the Petri dish more efficiently than OPCs. The unattached OPCs were transferred onto poly-D,L-ornithine-coated Petri dishes at a cell density of 10^4 per/cm2 with a basal chemically defined medium (“BDM”) containing 10 ng/ml platelet-derived growth factor-alpha (“PDGF-AA”) and 10 ng/ml basic fibroblast growth factor (“bFGF”) for 7-10 days. […]

[4] = test system: mouse OPC cell line-N20.1; assay: Western blot of MBP, TLR signaling mediators and MAPKs in N20.1 cells
Description: The mouse primary cultures of OPCs were conditionally immortalized by transformation with a temperature-sensitive large T-antigen into a mouse OPC cell line-N20.1 (21). N20.1 cells were provided by Dr. Anthony Campagnoni (University of California at Los Angeles). N20.1 cells were grown and maintained in Dulbecco's modified Eagle's medium (“DMEM”)/F12 with 1% fetal bovine serum (“FBS”) and G418 (100 μg/ml) at 37° C. For N20.1 cells, transient transfections were performed with Nucleofector kit according to the manufacturer's protocol (Amaxa, Germany). The cells (10^6) were mixed with 1 μg plasmid DNA or 100 pmol of siRNA/oligo nucleotides and pulsed according to the manufacturer's instruction. The transfected cells were immediately plated into Petri dishes with DMEM containing 1% FBS and incubated at 37° C. for days. Primary rat embryonic OPCs were transiently transfected with Lipofectamine (Invitrogen) overnight, according to the manufacturer's protocol (see Chew et al., J. Neuroscience 30(33): 11011-11027 (2010)). Amounts of DNA and siRNA/oligo nucleotides were used as recommended by the manufacturer. The control plasmid (pcDNA3) was used as a mock transfected control for miR-146a expression vector transfection, and control siRNA (Ambion, a random mixture of oligonucleotides) was used as a mock transfected control for both transfections with Tβ4siRNA and anti-miR-146a inhibitor nucleotides. The cells (10^4 cells/cm^2) were treated with 0, 25, 50, 100 ng/ml of Tβ4 (RegeneRx Biopharmaceuticals Inc., Rockville, Md.). The cells were incubated at 37° C. and fed every 2 days with fresh medium (DMEM containing 1% FBS for N20.1 cells and BDM for primary rat embryonic OPCs) with and without Tβ4 for 4 days. To test for LPS contamination in Tβ4, the cells were cultured in the presence of the LPS inhibitor polymyxin B (50 μg/ml) followed by treatment with Tβ4. Tβ4 (100 ng/ml) was boiled for 10 minutes in order to denature Tβ4 protein and was used as a negative control. Transfected cells (2×10^4 cells/cm2) including mock transfected controls were treated with and without 100 ng/ml of Tβ4 (RegeneRx Biopharmaceuticals Inc., Rockville, Md.) for 4 days and fresh medium was provided at day 2 with/without Tβ4.
Total protein extracts from the cells were prepared, as known to the skilled artisan. The protein extracts were separated by sodium dodecyl sulfate-polyacrylamide gel electrophoresis for Western blot analysis. For Western blot analysis, rabbit antiserum for MBP (1:200; Dako, Carpinteria, Calif.), monoclonal antibodies (1:1000) for p38MAPK, phosphorylated p38MAPK, c-JUN, phosphorylated c-JUN (1:1000; Upstate, Charlottesville, Va., USA), rabbit polyclonal antibodies (1:1000) for JNK1 and phosphorylated JNK1 (Promega Corporation), goat polyclonal TLR2, rabbit polyclonal TLR4, mouse monoclonal IRAK1 antibodies (1:1000), rabbit polyclonal TRAF6 antibodies (1:1000) mouse monoclonal β-actin antibodies (1:5000; Santa Cruz Biotechnology) and mouse monoclonal α-tubulin antibodies (1:5000; Sigma) were used. Donkey anti-goat, anti-rabbit, and anti-mouse horseradish peroxidase (1:5000; Jackson ImmunoResearch Labs, West Grove, Pa., USA) were used as secondary antibodies. Each experiment was repeated at least three times. The protein bands were quantified based on histogram analysis relative to gel loading marker α-tubulin.

[5] = test system: primary rat embryonic OPCs; assay: miR-146a quantification by qrtPCR in primary rat embryonic OPCs
Description: as §3

[6] = test system: mouse OPC cell line-N20.1; assay: miR-146a quantification by qrtPCR in N20.1 cells
Description: The mouse primary cultures of OPCs were conditionally immortalized by transformation with a temperature-sensitive large T-antigen into a mouse OPC cell line-N20.1 (21). N20.1 cells were provided by Dr. Anthony Campagnoni (University of California at Los Angeles). N20.1 cells were grown and maintained in Dulbecco's modified Eagle's medium (“DMEM”)/F12 with 1% fetal bovine serum (“FBS”) and G418 (100 μg/ml) at 37° C. For N20.1 cells, transient transfections were performed with Nucleofector kit according to the manufacturer's protocol (Amaxa, Germany). The cells (10^6) were mixed with 1 μg plasmid DNA or 100 pmol of siRNA/oligo nucleotides and pulsed according to the manufacturer's instruction. The transfected cells were immediately plated into Petri dishes with DMEM containing 1% FBS and incubated at 37° C. for days. Primary rat embryonic OPCs were transiently transfected with Lipofectamine (Invitrogen) overnight, according to the manufacturer's protocol (see Chew et al., J. Neuroscience 30(33): 11011-11027 (2010)). […]
The cDNA for each miR and TaqMan assay were performed in triplicate according to the manufacturer's protocol specified in Applied Biosystems ViiA™ 7 Real-Time PCR System (Applied Biosystem). […] Values obtained from three independent experiments were analyzed relative to gene expression data using the 2^−ΔΔCT method.

mouse N20.1 cells = assay: MBP immunofluorescence cell counting in N20.1 cells; details: Tβ4 100 ng/ml where used; DAPI positive cells as total
Description: as §2
Immunofluorescence staining was performed in N20.1 and primary rat embryonic OPC cells. These cells were fixed with 4% paraformaldehyde for 1 h, washed with PBS, blocked with 1% serum for 1 h and incubated with monoclonal antibodies of OPC marker—O4, (1:1000, Chemicon, Billerica, Mass., USA) and a polyclonal antibody against mature OL marker—MBP (1:200; Dako, Carpinteria, Calif.) at room temperature for one hour, rinsed with PBS and secondary antibodies labeled with cyanine fluorophore (Cy3—red fluorescence) for 1 h. The slides were counterstained with 4′,6-diamidino-2-phenylindole (DAPI—blue fluorescence) and examined under Fluorescent Illumination Microscope (Olympus IX71/IX51, Tokyo, Japan). […]

[7] = test system: primary rat embryonic OPCs; assay: Western blot of MBP, TLR signaling mediators and MAPKs in primary rat embryonic OPCs
Description: as §1
The mouse primary cultures of OPCs were conditionally immortalized by transformation with a temperature-sensitive large T-antigen into a mouse OPC cell line-N20.1 (21). N20.1 cells were provided by Dr. Anthony Campagnoni (University of California at Los Angeles). N20.1 cells were grown and maintained in Dulbecco's modified Eagle's medium (“DMEM”)/F12 with 1% fetal bovine serum (“FBS”) and G418 (100 μg/ml) at 37° C. For N20.1 cells, transient transfections were performed with Nucleofector kit according to the manufacturer's protocol (Amaxa, Germany). The cells (10^6) were mixed with 1 μg plasmid DNA or 100 pmol of siRNA/oligo nucleotides and pulsed according to the manufacturer's instruction. The transfected cells were immediately plated into Petri dishes with DMEM containing 1% FBS and incubated at 37° C. for days. Primary rat embryonic OPCs were transiently transfected with Lipofectamine (Invitrogen) overnight, according to the manufacturer's protocol (see Chew et al., J. Neuroscience 30(33): 11011-11027 (2010)). Amounts of DNA and siRNA/oligo nucleotides were used as recommended by the manufacturer. The control plasmid (pcDNA3) was used as a mock transfected control for miR-146a expression vector transfection, and control siRNA (Ambion, a random mixture of oligonucleotides) was used as a mock transfected control for both transfections with Tβ4siRNA and anti-miR-146a inhibitor nucleotides. The cells (10^4 cells/cm^2) were treated with 0, 25, 50, 100 ng/ml of Tβ4 (RegeneRx Biopharmaceuticals Inc., Rockville, Md.). The cells were incubated at 37° C. and fed every 2 days with fresh medium (DMEM containing 1% FBS for N20.1 cells and BDM for primary rat embryonic OPCs) with and without Tβ4 for 4 days. To test for LPS contamination in Tβ4, the cells were cultured in the presence of the LPS inhibitor polymyxin B (50 μg/ml) followed by treatment with Tβ4. Tβ4 (100 ng/ml) was boiled for 10 minutes in order to denature Tβ4 protein and was used as a negative control. […]

[8] = second miR named, sentence 'In contrast'

Substance	expression of MBP, mRNA and protein levels [1]	expression of MBP, mRNA and protein levels [2]	increase in mRNA MBP expression ([1]; Tβ4 100 ng/ml where used)	number of MBP positive OPCs [3]	expression and phosphorylation of p38MAPK [4]	expression level of MBP (protein) [4]	expression levels of IRAK1 and TRAF6 [4]	expression of TLR2 and TLR4 [4]	phosphorylation of ERK1/2, JNK1 and c-Jun [4]	expression of miR-146a ([5]; Tβ4 0 to 100 ng/ml, 4 days)	miR-146a expression (data not shown) [5, 8]	increase in mRNA MBP expression ([2]; Tβ4 100 ng/ml where used)	expression of miR-146a ([6]; Tβ4 0 to 100 ng/ml, 4 days)	miR-146a expression (data not shown) [6, 8]	number of MBP positive OPCs (mouse N20.1 cells)	expression and phosphorylation of p38MAPK [7]	expression level of MBP (protein) [7]	expression levels of IRAK1 and TRAF6 [7]	expression of TLR2 and TLR4 [7]	phosphorylation of ERK1/2, JNK1 and c-Jun [7]
boiled denatured Tβ4: Tβ4 (100 ng/ml) boiled for 10 minutes to denature the protein, used as a negative control (SDKPDMAEIEKFDKSKLKKTETQEKNPLPSKETIEQEKQAGES; heat-denatured; UniProt P62328 2-44, looked up) [reference compound]	no effect	no effect	–	–	–	–	–	–	–	–	–	–	–	–	–	–	–	–	–	–
thymosin beta 4 (SDKPDMAEIEKFDKSKLKKTETQEKNPLPSKETIEQEKQAGES; listed as Homo sapiens) [Tβ4]	induced	induced	two-fold increase	significantly increased	induced	increased	markedly reduced	no effect	dose-dependently inhibited	increased in a dose dependent manner	no effect	two-fold increase	increased in a dose dependent manner	no effect	significantly increased	induced	increased	markedly reduced	no effect	dose-dependently inhibited
